Key:
Format in all cases: in vivo
[1] = tested on: 129S6/SvEv mice; assay: Contextual fear conditioning (CFC), 3-shock; freezing; details: for p, Freezing (%), CFC Re-exposure 2, Saline vs. drug: drug 5 min after re-exposure 1; for Behavior: Fear: dose 30 mg/kg
Experimental: A 3-shock CFC paradigm was administered as previously described (45, 46). CFC was conducted in chambers obtained from Med Associates (St. Albans, Vt.), with internal dimensions of approximately 20 cm wide×16 cm deep×20.5 cm high. The chambers had metal walls on each side, clear plastic front and back walls and ceilings, and stainless-steel bars on the floor. A house light (CM1820 bulb, 28v, 100 mA) mounted directly above the chamber provided illumination. Each chamber was located inside a larger, insulated, plastic cabinet that provided protection from outside light and noise. Each cabinet contained a ventilation fan that was operated during the sessions. A paper towel dabbed with lemon solution was placed underneath the chamber floor. Mice were held outside the experimental room in their home cages prior to testing and transported to the conditioning apparatus individually in standard mouse cages Chambers were cleaned with 70% EtOH between each set of mice. Mice were placed into the conditioning chamber and received shocks at 180 s, 240 s, and 300 s (2 s duration, 0.75 mA). Fifteen seconds after the last shock, mice were removed from the chamber. Overall, the training session lasted 317 s. […] All sessions were scored for freezing using FreezeFrame4.

[2] = tested on: 129S6/SvEv mice; assay: Forced swim test (FST); immobility time; details: for p, Fisher's PLSD Saline vs. drug, FST Day 2 Immobility Time (sec): drug 1 week before stress; for Behavior: Depressive-like: dose 30 mg/kg
Experimental: The FST was administered as previously described (47). Briefly, mice were placed into clear plastic buckets 20 cm in diameter and 23 cm deep filled ⅔ of the way with 22° C. water. Mice were videotaped from the side for 6 min and were exposed to the swim test on 2 consecutive days Immobility time was scored by an experimenter blind to the experimental groups.

[3] = tested on: 129S6/SvEv mice; assay: Marble burying (MB); details: 30 mg/kg; drug 5 minutes after stress; FIG. 2K
Experimental: The MB assay was conducted in a clean cage (10.5 in×5.5 in) containing soft pliable Beta Chip bedding (Northeastern Products Corp, Warrensburg, N.Y.). The cage contained 16 marbles set up in 4 rows of 4 across. Mice were given 30 minutes to explore and bury. At the end of the assay, the percentage of marbles buried was calculated.

[4] = 30 mg/kg, drug 1 week before stress, FIG. 1C
[5] = 30 mg/kg, drug 5 minutes after stress, FIG. 2C
[6] = 5 min prior to CFC, (R,S)-ketamine 30 mg/kg, FENM 20 mg/kg, vs saline
[7] = Prophylactic (5 min before stress)
[8] = Prophylactic (7 days before stress)
[9] = Saline vs. (R,S)-ketamine (30 mg/kg), FIG. 8D
[10] = Saline vs. (R,S)-ketamine (30 mg/kg), FIG. 8F
[11] = 30 mg/kg, drug 5 minutes after stress, FIG. 2F
[12] = Saline vs. (R,S)-ketamine (30 mg/kg), FIG. 8H

CNC1(c2ccccc2Cl)CCCCC1=O (racemic) [(R,S)-ketamine, reference compound]
p, Fisher's LSD Saline vs. drug, CFC Re-exposure Freezing Min 1 (%) [1, 4]: 0.0101 | p, Fisher's LSD Saline vs. drug, CFC Re-exposure Freezing Min 2 (%) [1, 4]: 0.0012 | p, Fisher's LSD Saline vs. drug, CFC Re-exposure Freezing Min 3 (%) [1, 4]: 0.0320 | p, Fisher's LSD Saline vs. drug, CFC Re-exposure Freezing Min 4 (%) [1, 4]: 0.0592 | p, Fisher's LSD Saline vs. drug, CFC Re-exposure Freezing Min 5 (%) [1, 4]: 0.4016 | p, Fisher's LSD Saline vs. drug, CFC Re-exposure Freezing (%) ([1]; 30 mg/kg, drug 1 week before stress, after ANOVA, FIG. 1D): 0.0086 | p, Fisher's LSD Saline vs. drug, CFC Re-exposure Freezing (%) ([1]; 30 mg/kg, drug 1 week before stress, after RMANOVA, FIG. 1C): 0.0086 | p, Fisher's PLSD Saline vs. drug, CFC Re-exposure Freezing Min 1 (%) [1, 5]: 0.6701 | p, Fisher's PLSD Saline vs. drug, CFC Re-exposure Freezing Min 2 (%) [1, 5]: 0.0587 | p, Fisher's PLSD Saline vs. drug, CFC Re-exposure Freezing Min 3 (%) [1, 5]: 0.1358 | p, Fisher's PLSD Saline vs. drug, CFC Re-exposure Freezing Min 4 (%) [1, 5]: 0.5515 | p, Fisher's PLSD Saline vs. drug, CFC Re-exposure Freezing Min 5 (%) [1, 5]: 0.1641 | p, Fisher's PLSD Saline vs. drug, CFC Re-exposure Freezing (%) ([1]; 30 mg/kg, drug 5 minutes after stress, after RMANOVA, FIG. 2C): 0.4342 | fear expression during CFC re-exposure ([1]; 1 week prior to CFC, (R,S)-ketamine 30 mg/kg, FENM 20 and 30 mg/kg, vs saline): decreased fear expression | fear expression during re-exposure 2 ([1]; 5 min after context re-exposure 1 (24 h before re-exposure 2), (R,S)-ketamine 30 mg/kg, FENM 20 mg/kg, vs saline): but not (R,S)-ketamine, significantly decreased | fear expression during CFC re-exposure 1 [1, 6]: significantly decreased fear expression | fear expression during CFC re-exposure 2 [1, 6]: significantly decreased fear expression | freezing during CFC training [1, 6]: significantly increased freezing | p, Freezing (%), CFC Re-exposure 2, Saline vs. drug ([1]; Fisher's LSD after ANOVA, FENM 20 mg/kg, (R,S)-ketamine 30 mg/kg, FIG. 4G): 0.9122 | p, Freezing (%), CFC Re-exposure 2, Saline vs. drug ([1]; Fisher's LSD after RMANOVA, FENM 20 mg/kg, ketamine 30 mg/kg, FIG. 4F): 0.9122 | p, Freezing (%), CFC Training, Saline vs. drug ([1]; Fisher's LSD after RMANOVA, drug 5 min before CFC, (R,S)-ketamine 30 mg/kg, FENM dose lies beyond the rows shown, FIG. 8B): 0.0024 | Behavior: Fear [1, 7]: ↓ | Behavior: Fear [1, 8]: ↓ | CFC Training, Average Freezing, p (Fisher's LSD) ([1]; Saline vs. (R,S)-ketamine (30 mg/kg), FIG. 8C): 0.0024 | CFC Re-exposure 1, Freezing Min 1 (%), p (Fisher's LSD) [1, 9]: 0.0066 | CFC Re-exposure 1, Freezing Min 2 (%), p (Fisher's LSD) [1, 9]: <0.0001 | CFC Re-exposure 1, Freezing Min 3 (%), p (Fisher's LSD) [1, 9]: <0.0001 | CFC Re-exposure 1, Freezing Min 4 (%), p (Fisher's LSD) [1, 9]: <0.0001 | CFC Re-exposure 1, Freezing Min 5 (%), p (Fisher's LSD) [1, 9]: <0.0001 | CFC Re-exposure 2, Freezing Min 1 (%), p (Fisher's LSD) [1, 10]: 0.4378 | CFC Re-exposure 2, Freezing Min 2 (%), p (Fisher's LSD) [1, 10]: 0.0304 | CFC Re-exposure 2, Freezing Min 4 (%), p (Fisher's LSD) [1, 10]: <0.0001 | CFC Re-exposure 2, Freezing Min 5 (%), p (Fisher's LSD) [1, 10]: <0.0001 | CFC Re-exposure 1, Freezing (%), p (Fisher's LSD) ([1]; Saline vs. (R,S)-ketamine (30 mg/kg), after ANOVA, FIG. 8E): <0.0001 | CFC Re-exposure 2, Freezing (%), p (Fisher's LSD) ([1]; Saline vs. (R,S)-ketamine (30 mg/kg), after ANOVA, FIG. 8G): <0.0001 | CFC Re-exposure 1, Freezing (%), p (Fisher's LSD) ([1]; Saline vs. (R,S)-ketamine (30 mg/kg), after RMANOVA, FIG. 8D): <0.0001 | CFC Re-exposure 2, Freezing (%), p (Fisher's LSD) ([1]; Saline vs. (R,S)-ketamine (30 mg/kg), after RMANOVA, FIG. 8F): <0.0001 | CFC Re-exposure 2, Freezing Min 3 (%), p (Fisher's LSD) ([1]; Saline vs. ketamine (30 mg/kg), FIG. 8F): 0.0033 | behavior during CFC training ([1]; one week prior to 3-shock CFC (c-fos / Western blot cohort), (R,S)-ketamine 30 mg/kg, FENM 20 mg/kg, vs saline): did not alter behavior | freezing upon re-exposure ([1]; one week prior to 3-shock CFC, re-exposed five days later, (R,S)-ketamine 30 mg/kg, FENM 20 mg/kg, vs saline): significantly reduced freezing | p, Fisher's PLSD Saline vs. drug, FST Day 2 Immobility Time (sec) ([2]; 30 mg/kg, after ANOVA, FIG. 1G): 0.0007 | p, Fisher's PLSD Saline vs. drug, FST Day 2 Immobility Time (sec) ([2]; 30 mg/kg, after RMANOVA, FIG. 1F): 0.0003 | p, Fisher's PLSD Saline vs. drug, FST Day 2 Immobility Time Min 1 (s) [2, 11]: 0.7994 | p, Fisher's PLSD Saline vs. drug, FST Day 2 Immobility Time Min 2 (s) [2, 11]: 0.0125 | p, Fisher's PLSD Saline vs. drug, FST Day 2 Immobility Time Min 3 (s) [2, 11]: 0.8598 | p, Fisher's PLSD Saline vs. drug, FST Day 2 Immobility Time Min 4 (s) [2, 11]: 0.2874 | p, Fisher's PLSD Saline vs. drug, FST Day 2 Immobility Time Min 5 (s) [2, 11]: 0.6526 | p, Fisher's PLSD Saline vs. drug, FST Day 2 Immobility Time Min 6 (s) [2, 11]: 0.1586 | p, Fisher's PLSD Saline vs. drug, FST Day 2 Immobility Time (s) ([2]; 30 mg/kg, drug 5 minutes after stress, after ANOVA, FIG. 2G): 0.0466 | immobility time, day 2 of the FST [2, 6]: significantly decreased immobility time | Behavior: Depressive-like ([2]; Antidepressant (5 min after stress)): ↓ | p, Immobility Time (s), FST Day 2, Saline vs. drug ([2]; Fisher's PLSD after ANOVA, drug 5 minutes after stress, FENM 20 mg/kg, (R,S)-ketamine 30 mg/kg, FIG. 3K): 0.6082 | p, Immobility Time (s), FST Day 2, Saline vs. drug ([2]; Fisher's PLSD after RMANOVA, drug 5 minutes after stress, FENM 20 mg/kg, (R,S)-ketamine 30 mg/kg, FIG. 3J): 0.8125 | Behavior: Depressive-like [2, 7]: ↓ | Behavior: Depressive-like [2, 8]: ↓ | Forced Swim Test Day 1, Immobility Time Min 1 (sec), p (Fisher's LSD) [2, 12]: 0.0026 | Forced Swim Test Day 1, Immobility Time Min 2 (sec), p (Fisher's LSD) [2, 12]: 0.2638 | Forced Swim Test Day 1, Immobility Time Min 3 (sec), p (Fisher's LSD) [2, 12]: 0.2171 | Forced Swim Test Day 1, Immobility Time Min 4 (sec), p (Fisher's LSD) [2, 12]: 0.6849 | Forced Swim Test Day 1, Immobility Time Min 5 (sec), p (Fisher's LSD) [2, 12]: 0.2114 | Forced Swim Test Day 1, Immobility Time Min 6 (sec), p (Fisher's LSD) [2, 12]: 0.0499 | Forced Swim Test Day 2, Immobility Time (sec), p (Fisher's LSD) ([2]; Saline vs. (R,S)-ketamine (30 mg/kg), after ANOVA, FIG. 8K): 0.0046 | Forced Swim Test Day 2, Immobility Time (sec), p (Fisher's LSD) ([2]; Saline vs. (R,S)-ketamine (30 mg/kg), after RMANOVA, FIG. 8J): 0.0036 | p, Fisher's PLSD Saline vs. drug, MB Marbles Buried (no.) [3]: 0.7292

From patent US20220071932A1, “Compositions and Methods Against Stress-Induced Affective Disorders and Their Associated Symptoms” (The Trustees of Columbia University in the City of New York, priority 2019, published 2022)
